Measured values: ChEMBL document CHEMBL4261659, “Synthesis and biological evaluation of novel N-substituted nipecotic acid derivatives with a trans-alkene spacer as potent GABA uptake inhibitors” (Bioorg Med Chem, 2018)

Tests used:
[1] = target: T1, Sodium- and chloride-dependent GABA transporter 1 (Mus musculus, UniProt P31648); assay: Inhibition of mouse GAT1 expressed in HEK293 cells assessed as reduction in [3H]GABA uptake preincubated for 25 mins followed by [3H]GABA addition and measured after 4 mins by liquid scintillation counting method; format: cell-based
GABA transporter 4 = target: T2, GABA transporter 4 (Mus musculus, UniProt P31650); assay: Inhibition of mouse GAT4 expressed in HEK293 cells assessed as reduction in [3H]GABA uptake preincubated for 25 mins followed by [3H]GABA addition and measured after 4 mins by liquid scintillation counting method; format: cell-based
T2 sequence (P31650 whole entry): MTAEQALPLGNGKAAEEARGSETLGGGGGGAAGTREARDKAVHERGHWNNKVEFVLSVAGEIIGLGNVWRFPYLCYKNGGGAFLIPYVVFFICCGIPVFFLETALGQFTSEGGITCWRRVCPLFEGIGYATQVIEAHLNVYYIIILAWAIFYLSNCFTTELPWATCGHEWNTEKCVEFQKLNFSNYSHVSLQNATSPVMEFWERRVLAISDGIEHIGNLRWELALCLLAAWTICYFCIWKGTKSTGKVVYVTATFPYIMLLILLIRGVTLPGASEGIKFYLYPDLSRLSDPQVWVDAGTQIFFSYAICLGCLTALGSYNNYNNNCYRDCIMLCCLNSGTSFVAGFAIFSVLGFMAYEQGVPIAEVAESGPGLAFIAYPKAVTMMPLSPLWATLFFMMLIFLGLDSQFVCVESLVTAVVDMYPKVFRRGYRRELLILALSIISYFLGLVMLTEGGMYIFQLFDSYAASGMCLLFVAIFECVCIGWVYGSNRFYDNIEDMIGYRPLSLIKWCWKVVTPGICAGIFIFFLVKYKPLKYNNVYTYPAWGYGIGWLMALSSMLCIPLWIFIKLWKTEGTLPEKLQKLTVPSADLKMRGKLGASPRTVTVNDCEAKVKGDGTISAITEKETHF

[2] = target: T1, Sodium- and chloride-dependent GABA transporter 1; assay: Displacement of NO711 from mouse GAT1 expressed in stable HEK293 cells preincubated for 10 mins followed by NO711 addition and measured after 40 mins by LC-ESI-MS/MS analysis; format: cell-based
[3] = system: GABA transporter 3 (Mus musculus); assay: Inhibition of mouse GAT3 expressed in HEK293 cells assessed as remaining [3H]GABA uptake at 100 uM preincubated for 25 mins followed by [3H]GABA addition and measured after 4 mins by liquid scintillation counting method
[4] = system: Betaine/GABA transporter BGT1 (Mus musculus); assay: Inhibition of mouse GAT2 expressed in HEK293 cells assessed as remaining [3H]GABA uptake at 100 uM preincubated for 25 mins followed by [3H]GABA addition and measured after 4 mins by liquid scintillation counting method
[5] = target: Sodium- and chloride-dependent GABA transporter 1 (Mus musculus) (UniProt P31648); assay: Inhibition of mouse GAT1 expressed in HEK293 cells assessed as remaining [3H]GABA uptake at 100 uM preincubated for 25 mins followed by [3H]GABA addition and measured after 4 mins by liquid scintillation counting method; format: cell-based
[6] = target: T3, GABA transporter 4 (Mus musculus) (UniProt P31650); assay: Inhibition of mouse GAT4 expressed in HEK293 cells assessed as remaining [3H]GABA uptake at 100 uM preincubated for 25 mins followed by [3H]GABA addition and measured after 4 mins by liquid scintillation counting method; format: cell-based
T3 sequence (whole entry): T2 sequence (P31650 whole entry)

[7] = target: Sodium- and chloride-dependent GABA transporter 1 (Mus musculus) (UniProt P31648); assay: Displacement of NO711 from mouse GAT1 expressed in stable HEK293 cells assessed as remaining specific NO711 binding level preincubated at 100 uM for 10 mins followed by NO711 addition and measured after 40 mins by LC-ESI-MS/MS analysis; format: cell-based

Structure (SMILES) | IC50 [1] [µM] | IC50 (GABA transporter 4) [µM] | Ki [2] [µM] | Activity [3] [%] | Activity [4] [%] | Activity [5] [%] | Activity [6] [%] | Activity [7] [%]
COc1ccc(C(/C=C/CN2CCC[C@H](C(=O)O)C2)(c2ccc(OC)cc2)c2ccc3sccc3c2)cc1 | 14.1 | 2.88 | 7.24 | – | – | – | – | –
COc1ccc(C(C/C=C/CN2CCCC(C(=O)O)C2)(c2ccc(OC)cc2)c2ccc(OC)cc2)cc1 (racemic) | 55 | 41.7 | 34.7 | – | 66 | – | – | –
O=C(O)C1CCCN(C/C=C/C(c2ccccc2)(c2ccccc2)c2ccccc2)C1 (racemic) | 40.7 | – | 8.32 | 103 | 108 | – | 89 | –
O=C(O)C1CCCN(C/C=C/C(c2ccc3sccc3c2)(c2ccc3sccc3c2)c2ccc3sccc3c2)C1 (racemic) | – | 20 | – | – | – | 50 | – | 54
COc1ccc(CC(/C=C/CN2CCCC(C(=O)O)C2)(c2ccc(OC)cc2)c2ccc(OC)cc2)cc1 (racemic) | 11.2 | 66.1 | 3.09 | 53 | 60 | – | – | –
O=C(O)C1CCCN(C/C=C/CC(c2ccccc2)(c2ccccc2)c2ccccc2)C1 (racemic) | 21.4 | 74.1 | 9.77 | 56 | 55 | – | – | –
O=C(O)C1CCCN(C/C=C/C(c2ccc3occc3c2)(c2ccc3occc3c2)c2ccc3occc3c2)C1 (racemic) | 4.07 | 5.89 | 2.14 | – | – | – | – | –
Cc1ccc(C(/C=C/CN2CCCC(C(=O)O)C2)(c2ccc(C)cc2)c2ccc(C)cc2)cc1 (racemic) | 20.4 | 10.7 | 5.5 | – | – | – | – | –
O=C(O)C1CCCN(C/C=C/C(c2ccc3c(c2)OCO3)(c2ccc3c(c2)OCO3)c2ccc3c(c2)OCO3)C1 (racemic) | 17.8 | 15.1 | 6.31 | – | – | – | – | –
COc1ccc(C(/C=C/CN2CCCC(C(=O)O)C2)(Cc2ccccc2)c2ccc(OC)cc2)cc1 (racemic) | 15.8 | – | 4.68 | 66 | 92 | – | 69 | –
O=C(O)C1CCCN(C/C=C/CC(c2ccccc2)c2ccccc2)C1 (racemic) | 0.166 | – | 0.0309 | 69 | 96 | – | 82 | –
COc1ccc(C(/C=C/CN2CCCC(C(=O)O)C2)c2ccc(OC)cc2)cc1 (racemic) | 14.1 | 31.6 | 3.72 | – | 51 | – | – | –
COc1ccc(C(C/C=C/CN2CCCC(C(=O)O)C2)c2ccc(OC)cc2)cc1 (racemic) | 13.5 | – | 3.24 | 71 | 96 | – | 84 | –

Now from value to compound:

IC50 [1] [µM] | IC50 (GABA transporter 4) [µM] | Ki [2] [µM] | Activity [3] [%] | Activity [4] [%] | Activity [5] [%] | Activity [6] [%] | Activity [7] [%] | Structure (SMILES)
– | – | 33.9 | 82 | 78 | 65 | 49 | – | COc1ccc(C(/C=C/CN2CCCC(C(=O)O)C2)(c2ccc(OC)cc2)c2nccs2)cc1 (racemic)
70.8 | 44.7 | – | 66 | 69 | – | – | 54 | COc1ccc(C(O)(/C=C/CN2CCCC(C(=O)O)C2)c2ccc(OC)cc2)cc1 (racemic)
28.2 | 3.16 | 8.71 | – | 53 | – | – | – | COc1ccc(C(/C=C/CN2CCCC(C(=O)O)C2)(c2ccc(OC)cc2)c2ccc3c(c2)OCO3)cc1 (racemic)
38.9 | 7.59 | 12.9 | – | 53 | – | – | – | COc1ccc(C(/C=C/CN2CCCC(C(=O)O)C2)(c2ccc(OC)cc2)c2ccsc2)cc1 (racemic)
10.2 | 3.55 | 3.31 | – | – | – | – | – | COc1ccc(C(/C=C/CN2CCCC(C(=O)O)C2)(c2ccc(OC)cc2)c2ccc3sccc3c2)cc1 (racemic)
– | – | – | 83 | 72 | 70 | 83 | 62 | COc1ccc(C(/C=C/CN2CCCC(C(=O)O)C2)(c2ccc(OC)cc2)c2nccn2C)cc1 (racemic)
